Measured values taken from US7101849B1 (The University of Queensland, priority 1998, dated 2006).

Biological target: N-type calcium channel (Rattus norvegicus, UniProt Q02294)
Assay type: binding

Chain of N-type calcium channel (Q02294 whole entry, looked up): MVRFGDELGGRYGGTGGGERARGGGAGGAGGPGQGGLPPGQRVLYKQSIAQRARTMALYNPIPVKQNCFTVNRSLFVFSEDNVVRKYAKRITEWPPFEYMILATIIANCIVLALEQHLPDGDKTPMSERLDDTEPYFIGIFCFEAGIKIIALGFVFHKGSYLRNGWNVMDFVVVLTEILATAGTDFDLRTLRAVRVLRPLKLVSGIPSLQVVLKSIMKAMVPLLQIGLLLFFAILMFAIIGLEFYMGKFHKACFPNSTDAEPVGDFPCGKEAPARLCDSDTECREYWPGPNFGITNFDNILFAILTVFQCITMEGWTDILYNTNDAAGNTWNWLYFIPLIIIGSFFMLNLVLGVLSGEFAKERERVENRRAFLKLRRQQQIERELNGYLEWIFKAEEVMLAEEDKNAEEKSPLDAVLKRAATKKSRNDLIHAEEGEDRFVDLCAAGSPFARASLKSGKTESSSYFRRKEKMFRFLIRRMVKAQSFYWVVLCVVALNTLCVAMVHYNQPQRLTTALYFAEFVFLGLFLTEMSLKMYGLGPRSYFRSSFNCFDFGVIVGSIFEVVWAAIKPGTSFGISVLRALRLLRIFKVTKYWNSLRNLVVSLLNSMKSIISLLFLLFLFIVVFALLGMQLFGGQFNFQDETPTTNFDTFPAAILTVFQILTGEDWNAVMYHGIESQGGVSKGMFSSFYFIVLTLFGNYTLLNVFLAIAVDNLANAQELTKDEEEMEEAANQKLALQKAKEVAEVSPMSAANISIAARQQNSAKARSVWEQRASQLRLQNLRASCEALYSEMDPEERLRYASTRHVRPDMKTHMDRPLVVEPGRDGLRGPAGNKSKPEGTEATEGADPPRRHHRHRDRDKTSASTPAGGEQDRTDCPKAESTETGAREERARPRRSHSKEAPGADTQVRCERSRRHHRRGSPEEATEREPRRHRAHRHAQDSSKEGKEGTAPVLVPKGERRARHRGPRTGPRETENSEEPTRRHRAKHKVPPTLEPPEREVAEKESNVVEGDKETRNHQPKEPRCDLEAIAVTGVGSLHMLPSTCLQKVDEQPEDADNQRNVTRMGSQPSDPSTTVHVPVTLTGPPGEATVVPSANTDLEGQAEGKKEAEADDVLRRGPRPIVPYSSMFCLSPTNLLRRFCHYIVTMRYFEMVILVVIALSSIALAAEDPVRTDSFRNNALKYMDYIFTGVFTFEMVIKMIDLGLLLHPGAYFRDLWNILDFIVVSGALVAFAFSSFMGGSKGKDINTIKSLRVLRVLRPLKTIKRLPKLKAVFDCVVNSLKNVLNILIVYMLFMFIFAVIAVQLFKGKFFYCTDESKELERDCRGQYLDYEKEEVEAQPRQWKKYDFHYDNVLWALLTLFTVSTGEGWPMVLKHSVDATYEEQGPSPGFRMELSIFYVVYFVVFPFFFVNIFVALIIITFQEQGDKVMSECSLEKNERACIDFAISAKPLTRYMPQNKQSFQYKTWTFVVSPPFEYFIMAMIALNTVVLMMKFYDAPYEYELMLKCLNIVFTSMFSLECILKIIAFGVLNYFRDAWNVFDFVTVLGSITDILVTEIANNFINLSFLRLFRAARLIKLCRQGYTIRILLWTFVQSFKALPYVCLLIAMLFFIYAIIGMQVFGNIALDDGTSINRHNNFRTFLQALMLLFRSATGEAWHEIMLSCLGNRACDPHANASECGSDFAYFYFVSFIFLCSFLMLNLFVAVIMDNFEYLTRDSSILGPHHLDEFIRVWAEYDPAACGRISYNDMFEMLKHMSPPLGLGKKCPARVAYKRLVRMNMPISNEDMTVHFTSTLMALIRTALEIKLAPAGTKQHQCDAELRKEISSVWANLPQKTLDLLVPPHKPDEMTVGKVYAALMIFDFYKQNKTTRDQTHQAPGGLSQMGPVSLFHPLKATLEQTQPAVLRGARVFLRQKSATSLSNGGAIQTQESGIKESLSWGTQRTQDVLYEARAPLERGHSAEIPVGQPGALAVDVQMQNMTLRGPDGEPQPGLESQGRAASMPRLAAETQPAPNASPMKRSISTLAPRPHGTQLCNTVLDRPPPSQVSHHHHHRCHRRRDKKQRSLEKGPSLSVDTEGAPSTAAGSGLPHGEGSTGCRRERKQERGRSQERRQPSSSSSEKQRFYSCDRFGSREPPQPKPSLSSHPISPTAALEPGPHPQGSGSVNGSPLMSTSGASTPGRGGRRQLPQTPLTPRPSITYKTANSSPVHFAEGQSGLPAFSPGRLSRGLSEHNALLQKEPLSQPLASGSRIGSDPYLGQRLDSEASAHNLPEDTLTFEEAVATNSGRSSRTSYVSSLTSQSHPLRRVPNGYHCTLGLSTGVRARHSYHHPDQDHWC

For “CKSKGAKCDRLMYDCCSGSCSGTVGRC [D^9R^10-CVID]”, the “potency for N-type calcium channel in receptor binding assays” value was “high potency” and the “selectivity for N-type calcium channel over P/Q-type calcium channel in receptor binding assays” value was “high selectivity”.
